# Data: patent publication US6001880A, “Alkylenediamine derivative, anti-ulcer drug, and antibacterial drug” (Shiseido Co., Ltd., priority 1997, dated 1999)
# Experiments:
# [1] = MTT: Cell Damaging and Protecting Effect Test; format: cell-based, rabbit (male Japanese White); conditions: rabbit, gastric corpus mucosa cells, final concentration 10^-4 M, smaller value is better, read-out: MTT: cell damaging rate
# Method in brief: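 Primary gastric corpus mucosal cells from male Japanese White rabbit, enzymatically dispersed and cultured 3 days to confluence. Compound at final 10^-4 M added with MTT for 4 h at 37 °C; formazan read at OD 570–630. Cell damaging rate (%) calculated against control absorbance.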
# mice = test system: mice; parameters: species or system mouse (male Slc:ICR); conditions: mouse, in vivo
# Procedure: AT: Single Dose Toxicity Pretest
# Male Slc:ICR mice (5-week-old) were used. Each group has 3 to 5 mice and each mouse was fasted, but allowed free access to water, for 4 to 5 hours from 9 a.m. in the test day. Then, 2,000 mg/10 ml/kg of the sample compound dissolved or suspended in an aqueous solution of 0.5% sodium carboxymethyl cellulose was orally administered thereto. To a control, only the vehicle was administered. […] The body weight was measured before and after the fasting as well as at the same time everyday. The dead animals were immediately subjected to autopsy and their organs were observed by naked eyes. Also, the living animals were sacrificed with ether or carbon dioxide one week after the administration and then their organs were observed by naked eyes.
# The toxicity at the single dose of 2,000 mg/kg of the sample compound was expressed as being classified into 5 levels.
# 5: mortality rate is 0%; no toxicity is found at all both in behavior and organs.
# 4: Mortality rate is 0%; while no toxicity is found in organs, slight toxicity is observed in behavior or body weight increase.
# 3: While there is a dead animal (though not all the animals are dead), no toxicity is found in organs.
# 2: Regardless of whether there is a dead animal or not, toxicity is found in organs.
# 1: All the animals are dead.
# [2] = test system: stress ulcer formation in rats; assay: WIS: Restraint and Water Immersion Stress-Induced Ulcer Inhibition Test; format: in vivo, rat (male Crj:SD or Slc:SD); conditions: 100 mg/kg oral, 10 minutes before 7 h restraint and water immersion (21° C.)
# Method in brief: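 Overnight-fasted male SD rats (6–7 weeks, n=5–8) dosed orally at 100 mg/kg in 0.3% CMC-Na or 0.05% Tween 80; 10 min later restrained and immersed to xiphoid in 21° C water for 7 h. Ulcer index is summed glandular erosion length; inhibition % = (1 − UI sample/UI control).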
Structure (SMILES),"cytotoxicity at 4 h, 100 µM [1] [%]",AT: single dose toxicity level (mice),WIS: ulcer formation inhibitory rate [2] [%]
CCN(CC)CCNC(=O)c1cc(OCC=C(C)C)cc(OCC=C(C)C)c1 [Example 14],43,5,86
CCN(CC)CCNC(=O)c1cc(OC/C=C(\C)CCC=C(C)C)ccc1OC/C=C(\C)CCC=C(C)C [Example 16],40,5,82
CC(C)=CCC/C(C)=C/COc1ccc(OC/C=C(\C)CCC=C(C)C)c(C(=O)NCCN(C(C)C)C(C)C)c1 [Example 17],27,5,62
CCN(CC=C(C)C)c1ccc(C(=O)NCCN(C(C)C)C(C)C)cc1 [Example 28],16,,87
CCN(CC)CCNC(=O)c1cc(OC)c(OC/C=C(\C)CCC=C(C)C)c(OC)c1 [Example 37],39,4,69
CCN(CC)CCNC(=O)c1cc(OC)c(OC/C=C(/C)CCC=C(C)C)c(OC)c1 [Example 38],30,5,86
COc1cc(C(=O)NCCN(C)C)cc(OC/C=C(\C)CCC=C(C)C)c1OC [Example 42],17,3,81
